These are literature values, as cited in patent US9775839B2, “2-pyrazine carboxamides as spleen tyrosine kinase inhibitors” (Merck Sharp & Dohme Corp., priority 2014, dated 2017).

SMILES strings stand for the structures.

The test system of one series is PGD2. The conditions noted are these: dosed intranasally, allergic rhinitis, phase I/II study.
For series [1] the following is noted: allergic rhinitis, phase II clinical trial.

As to `Oc1cccc(Nc2ncc(F)c(Nc3cccc(O)c3)n2)c1` [Example R112], in the series with PGD2, the “change in PGD2” value was “statistically significant decrease” and the clinical safety result is listed as “safe across a range of indicators”. Moreover, the efficacy versus placebo result in series [1] was “lack of efficacy”.
